In the NIST ThermoML archive (doi:10.1016/j.tca.2004.11.022):

Assay: xn = mol fraction of the nth substance listed
Conditions: 101 kPa, Liquid; for mass density: Vibrating tube method; for speed of sound: Pulse-echo method

COC(=O)OC [dimethyl carbonate] + CCCCCCCC
Conditions | mass density, 288.15 K [kg/m3] | mass density, 293.15 K [kg/m3] | mass density, 298.15 K [kg/m3] | mass density, 308.15 K [kg/m3] | speed of sound, 298.15 K [m/s]
x1 = 0.05047 | – | 710.88 | 706.69 | 698.46 | 1165
x1 = 0.1072 | – | 721.13 | 716.89 | 708.37 | 1158.1
x1 = 0.1969 | – | 739.1 | 734.68 | 725.85 | 1148.9
x1 = 0.2958 | – | 761.79 | 757.15 | 747.86 | 1141.5
x1 = 0.4018 | – | 789.7 | 784.9 | 775.1 | 1136.1
x1 = 0.5011 | – | 819.9 | 814.8 | 804.5 | 1133.7
x1 = 0.5974 | – | 853.5 | 848.1 | 837.3 | 1134.2
x1 = 0.699 | 900.18 | 894.47 | 888.77 | 877.52 | 1138.7
x1 = 0.7982 | 947.83 | 941.92 | 935.98 | 924.07 | 1149.1
x1 = 0.8992 | 1005.83 | 999.55 | 993.3 | 980.86 | 1167.7
x1 = 0.949 | 1038.95 | 1032.56 | 1026.12 | 1013.24 | 1180.9
